Consider 14 compounds from publication PMC10535199, “A Combined Experimental and Computational Study of Novel Benzotriazinone Carboxamides as Alpha-Glucosidase Inhibitors” (Molecules, 2023).

The target in one data set is T1, Alpha-glucosidase (Saccharomyces cerevisiae, UniProt P53341).
T1 construct: purchased 5003-1KU Type I
Nature of the data set: biochemical. The conditions noted are these: for inhibition at 500 µM: pH 6.8, read-out: Inhibition (%) at 0.5 mM; for IC50: pH 6.8, 30 min incubation. Here is the method:
The alpha-glucosidase inhibitory assay was performed by adopting the method of Pierre et al., with minor modifications. Alpha-glucosidase (Cat No. 5003-1KU Type I) belonging to Saccharomyces cerevisiae was selected for this protocol because its structure and function were similar to yeast and mammalian enzymes. In test tubes, 10 μL of test compound (0.5 mM), 70 μL of saline phosphate buffer (50 mM) to adjust pH at 6.8, and 10 μL of α-glucosidase enzyme (0.0234 units) were added to prepare […] assay mixture. A quantity of 10 μL p-nitrophenyl-α-D-glucopyranoside (0.5 mM, N1377 from Sigma, Burlington, MA, USA) was added to initiate the reaction and tubes were incubated for 30 min. […] Free substrate change in absorbance was monitored at 400 nm. The alpha-glucosidase inhibitory activity was calculated as percentage inhibition by using formula:% Inhibition = [(Abs. of control − Abs. of test)/Abs. of control] × 100
IC50 values were determined using EZ-Fit enzyme kinetics software version 5.03 (Perrella Scientific Inc. Amherst, Amherst, MA, USA).

T1 sequence (P53341 whole entry): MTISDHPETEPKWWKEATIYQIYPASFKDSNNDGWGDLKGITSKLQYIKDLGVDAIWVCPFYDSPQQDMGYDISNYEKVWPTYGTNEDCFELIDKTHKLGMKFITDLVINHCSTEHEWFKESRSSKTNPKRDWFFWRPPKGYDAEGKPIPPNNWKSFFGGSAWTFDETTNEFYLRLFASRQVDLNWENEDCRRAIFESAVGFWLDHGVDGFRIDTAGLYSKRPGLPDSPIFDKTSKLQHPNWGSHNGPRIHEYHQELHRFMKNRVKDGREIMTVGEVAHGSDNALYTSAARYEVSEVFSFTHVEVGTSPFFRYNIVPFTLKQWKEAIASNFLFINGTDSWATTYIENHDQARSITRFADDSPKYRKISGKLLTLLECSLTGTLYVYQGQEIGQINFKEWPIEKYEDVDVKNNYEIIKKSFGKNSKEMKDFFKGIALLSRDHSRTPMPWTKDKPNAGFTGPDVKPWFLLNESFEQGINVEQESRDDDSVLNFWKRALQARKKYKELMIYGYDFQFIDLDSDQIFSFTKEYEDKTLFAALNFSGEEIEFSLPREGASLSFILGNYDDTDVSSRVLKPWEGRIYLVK

In general, melting point refers to the temperature, or range, at which the solid turns liquid. A word on the inhibition: it is the relative decrease from the control value, in per cent. Compound `CCCNC(=O)CCCn1nnc2ccccc2c1=O` [14a, N-propyl-4-(4-Oxobenzo[1,2,3]triazin-3(4H)-yl)butanamide] came in with a melting point of 127 to 128 °C. The inhibition at 500 µM on Alpha-glucosidase stood at 39.13 ± 0.19%.
As a reminder, the IC50 is the concentration needed to halve the response being measured. Low readings indicate inhibition by little substance, high ones a need for much substance. `O=C(CCCn1nnc2ccccc2c1=O)Nc1ccc(Br)cc1` [14h, N-(4-Bromophenyl)-4-(4-oxobenzo[1,2,3]triazin-3(4H)-yl)butanamide] had a melting point of 115 to 116 °C. Moreover, on Alpha-glucosidase, the IC50 was found to be 238.15 ± 0.15 µM and the inhibition at 500 µM came to 74.25 ± 0.27%.
In turn, `COc1ccc(NC(=O)CCCn2nnc3ccccc3c2=O)cc1` [14n, N-(4-Methoxyphenyl)-4-(4-oxobenzo[1,2,3]triazin-3(4H)-yl)butanamide] returned a melting point of 147 to 148 °C. For the same compound, on Alpha-glucosidase, inhibition was half-maximal at 75.37 ± 0.14 µM (IC50) and the inhibition at 500 µM was 87.46 ± 0.15%.
`COc1ccccc1NC(=O)CCCn1nnc2ccccc2c1=O` [14m, N-(2-Methoxyphenyl)-4-(4-oxobenzo[1,2,3]triazin-3(4H)-yl)butanamide] yielded a melting point of 139 to 140 °C. At Alpha-glucosidase, half-maximal inhibition (IC50) required 121.3 ± 0.15 µM and the inhibition at 500 µM stood at 84.31 ± 0.18%.
For the compound `CCCCCCCNC(=O)CCCn1nnc2ccccc2c1=O` [14e, N-Heptyl-4-(4-oxobenzo[1,2,3]triazin-3(4H)-yl)butanamide], the melting point was 100 to 101 °C. At Alpha-glucosidase, the inhibition at 500 µM worked out at 40.23 ± 0.21%.
On to `Cc1cc(C)cc(NC(=O)CCCn2nnc3ccccc3c2=O)c1` [14g, N-(3,5-Dimethylphenyl)-4-(4-oxobenzo[1,2,3]triazin-3(4H)-yl)butanamide], for which the melting point is 110 to 111 °C. At Alpha-glucosidase, the midpoint of inhibition, the IC50, lay at 196.52 ± 0.08 µM and the inhibition at 500 µM is 78.32 ± 0.18%.
`O=C(CCCn1nnc2ccccc2c1=O)Nc1cccc(Cl)c1` [14j, N-(3-Chlorophenyl)-4-(4-oxobenzo[1,2,3]triazin-3(4H)-yl)butanamide] showed a melting point of 209 to 210 °C. At Alpha-glucosidase, the IC50 is 52.01 ± 0.07 µM and the inhibition at 500 µM was found to be 89.35 ± 0.21%.
For `CCCCNC(=O)CCCn1nnc2ccccc2c1=O` [14b, N-Butyl-4-(4-oxobenzo[1,2,3]triazin-3(4H)-yl)butanamide], the melting point fell in the range of 123 to 124 °C. On Alpha-glucosidase, the IC50 amounted to 243.41 ± 0.18 µM and the inhibition at 500 µM worked out at 67.53 ± 0.14%.
`CCCCCCCCNC(=O)CCCn1nnc2ccccc2c1=O` [14f, N-Octyl-4-(4-oxobenzo[1,2,3]triazin-3(4H)-yl)butanamide] registered a melting point of 95 to 96 °C. Besides, the inhibition at 500 µM on Alpha-glucosidase was determined as 30.57 ± 0.16%.
Compound `Cc1cccc(NC(=O)CCCn2nnc3ccccc3c2=O)c1` [14l, N-(3-methylphenyl)-4-(4-Oxobenzo[1,2,3]triazin-3(4H)-yl)butanamide] had a melting point of 105 to 106 °C. Besides, at Alpha-glucosidase, the IC50 worked out at 32.14 ± 0.11 µM and the inhibition at 500 µM was 92.63 ± 0.12%.
In turn, `O=C(CCCn1nnc2ccccc2c1=O)Nc1ccc(Cl)cc1` [14i, N-(4-Chlorophenyl)-4-(4-oxobenzo[1,2,3]triazin-3(4H)-yl)butanamide] returned a melting point of 144 to 145 °C. Further, at Alpha-glucosidase, inhibition was half-maximal at 163.29 ± 0.13 µM (IC50) and the inhibition at 500 µM was found to be 82.77 ± 0.2%.
On to `CCCCCNC(=O)CCCn1nnc2ccccc2c1=O` [14c, N-pentyl-4-(4-Oxobenzo[1,2,3]triazin-3(4H)-yl)butanamide], for which the melting point fell in the range of 106 to 107 °C. Moreover, the inhibition at 500 µM on Alpha-glucosidase came out at 42.34 ± 0.25%.
`Cc1ccc(NC(=O)CCCn2nnc3ccccc3c2=O)cc1` [14k, N-(4-methylphenyl)-4-(4-Oxobenzo[1,2,3]triazin-3(4H)-yl)butanamide] displayed a melting point of 175 to 176 °C. Moreover, at Alpha-glucosidase, half-maximal inhibition (IC50) required 27.13 ± 0.12 µM and the inhibition at 500 µM is 94.18 ± 0.23%.
`CCCCCCNC(=O)CCCn1nnc2ccccc2c1=O` [14d, N-Hexyl-4-(4-oxobenzo[1,2,3]triazin-3(4H)-yl)butanamide] displayed a melting point of 102 to 103 °C. Moreover, on Alpha-glucosidase, the IC50 turned out to be 335.04 ± 0.07 µM and the inhibition at 500 µM came out at 66.2 ± 0.11%.
